The values that follow are results of earlier work, collected in US20130344150A1, “DIRECT COMPRESSION TABLETS OF OTILONIUM” (Abdi Ibrahim IIac Sanayi Ve Ticaret Anonim Sirketi, priority 2009, published 2013).

In data set [1] the test system is gastrointestinal-motility. The note with it: baseline and chemically or physically stimulated.
The conditions of data set [2]: clinical studies.

`CCCCCCCCOc1ccccc1C(=O)Nc1ccc(C(=O)OCC[N+](C)(CC)CC)cc1` [otilonium bromide]: the effect on gastrointestinal-motility result in data set [1] was “inhibits both baseline and chemically or physically stimulated gastrointestinal-motility”. Also, the tolerability entry in data set [2] is on record as “good tolerability profile”.
